{"source": "patent US10294202B2", "about": "“Pyrrolidinones as herbicides” (FMC Corporation, priority 2013, dated 2019)", "key": {"[1]": {"test_system": "nutsedge, yellow", "assay": "Test C pre-/postemergence herbicide test", "assay_type": "in vivo, Cyperus esculentus", "outline": "(§1)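 Compound solutions contained surfactant in a non-phytotoxic solvent. These were sprayed onto pots of loam/sand sown with seeds, and onto young plants (2 to 18 cm, 1- to 4-leaf) in sphagnum peat–vermiculite mix. Visual injury scores (0 none, 100 complete control) were recorded after 13 to 15 days.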"}, "[2]": {"test_system": "oat, wild", "assay": "Test C pre-/postemergence herbicide test", "assay_type": "in vivo, Avena fatua", "conditions": "Postemergence", "outline": "as §1"}, "[3]": {"test_system": "ducksalad", "assay": "Test B flooded paddy test", "assay_type": "in vivo, Heteranthera limosa", "conditions": "500 g ai/ha, Flood; scale of 0 to 100 where 0 is no effect and 100 is complete control", "outline": "(§2)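 Scoring: visual, compared with untreated controls, 0 = no effect through 100 = complete control, taken 13 to 15 days after treatment in the greenhouse. Compounds had been added to paddy water over soil flooded 3 cm deep at the plants' 2-leaf stage.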"}, "[4]": {"test_system": "pigweed", "assay": "Test C pre-/postemergence herbicide test", "assay_type": "in vivo, Amaranthus retroflexus", "outline": "as §1"}, "[5]": {"test_system": "blackgrass", "assay": "Test C pre-/postemergence herbicide test", "assay_type": "in vivo, Alopecurus myosuroides", "outline": "as §1"}, "[6]": {"test_system": "rice", "assay": "Test B flooded paddy test", "assay_type": "in vivo, Oryza sativa", "conditions": "500 g ai/ha, Flood; scale of 0 to 100 where 0 is no effect and 100 is complete control", "outline": "as §2"}, "[7]": {"test_system": "barnyardgrass", "assay": "Test B flooded paddy test", "assay_type": "in vivo, Echinochloa crus-galli", "conditions": "500 g ai/ha, Flood; scale of 0 to 100 where 0 is no effect and 100 is complete control", "outline": "as §2"}, "[8]": {"test_system": "ragweed", "assay": "Test C pre-/postemergence herbicide test", "assay_type": "in vivo, Ambrosia elatior", "outline": "as §1"}, "[9]": {"test_system": "sedge, umbrella", "assay": "Test B flooded paddy test", "assay_type": "in vivo, Cyperus difformis", "conditions": "500 g ai/ha, Flood; scale of 0 to 100 where 0 is no effect and 100 is complete control", "outline": "as §2"}, "[10]": {"test_system": "velvetleaf", "assay": "Test C pre-/postemergence herbicide test", "assay_type": "in vivo, Abutilon theophrasti", "outline": "as §1"}, "[11]": {"test_system": "waterhemp", "assay": "Test C pre-/postemergence herbicide test", "assay_type": "in vivo, Amaranthus rudis", "outline": "as §1"}, "[12]": {"test_system": "giant foxtail", "assay": "Test A pre-/postemergence herbicide test", "assay_type": "in vivo, Setaria faberii", "outline": "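Formulated compound (non-phytotoxic solvent, surfactant) sprayed pre- onto soil of seeded loam/sand pots or post- onto seedlings at 1–2 leaves; ~10 d greenhouse; 0–100 visual control rating versus untreated.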"}, "[13]": {"test_system": "oilseed rape", "assay": "Test C pre-/postemergence herbicide test", "assay_type": "in vivo, Brassica napus", "outline": "as §1"}, "[14]": {"conditions": "Postemergence, 31 g ai/ha, scale 0 to 100 (0 no effect, 100 complete control)"}, "[15]": {"conditions": "Postemergence, 62 g ai/ha, scale 0 (no effect) to 100 (complete control)"}, "[16]": {"conditions": "Postemergence, 125 g ai/ha, scale 0 to 100 (0 no effect, 100 complete control)"}, "[17]": {"conditions": "Postemergence, 250 g ai/ha, scale 0 to 100 (0 no effect, 100 complete control)"}, "[18]": {"conditions": "Preemergence, 31 g ai/ha, scale 0 to 100, 0 is no effect and 100 is complete control"}, "[19]": {"conditions": "Preemergence, 62 g ai/ha, scale 0 to 100 (0 no effect, 100 complete control)"}, "[20]": {"conditions": "Preemergence, 125 g ai/ha, scale 0 to 100"}}}
{"smiles": "O=C1NCC(c2cccc(C(F)(F)F)c2)C1C(=O)Nc1ccccc1Cl", "note": "(centres unmarked) [Compound 312]", "values": [{"measurement": "Plant response rating, Nutsedge, Yellow", "setting": "[1]; [14]", "result": 0}, {"measurement": "Plant response rating, Nutsedge, Yellow", "setting": "[1]; [15]", "result": 0}, {"measurement": "Plant response rating, Nutsedge, Yellow", "setting": "[1]; [16]", "result": 0}, {"measurement": "Plant response rating, Nutsedge, Yellow", "setting": "[1]; [17]", "result": 0}, {"measurement": "Nutsedge, Yellow plant response rating", "setting": "[1]; [18]", "result": 0}, {"measurement": "Nutsedge, Yellow plant response rating", "setting": "[1]; [19]", "result": 35}, {"measurement": "Plant response rating, Nutsedge, Yellow", "setting": "[1]; [20]", "result": 0}, {"measurement": "Plant response rating (scale of 0 to 100), Nutsedge, Yellow", "setting": "[1]; Preemergence, 250 g ai/ha", "result": 0}, {"measurement": "Plant response rating, Oat, Wild", "setting": "[2]; 31 g ai/ha, scale 0 to 100 (0 no effect, 100 complete control)", "result": 0}, {"measurement": "Plant response rating, Oat, Wild", "setting": "[2]; 62 g ai/ha, scale 0 (no effect) to 100 (complete control)", "result": 0}, {"measurement": "Plant response rating, Oat, Wild", "setting": "[2]; 125 g ai/ha, scale 0 to 100 (0 no effect, 100 complete control)", "result": 0}, {"measurement": "Plant response rating, Oat, Wild", "setting": "[2]; 250 g ai/ha, scale 0 to 100 (0 no effect, 100 complete control)", "result": 0}, {"measurement": "Plant response rating, Ducksalad", "setting": "[3]", "result": 100}, {"measurement": "Plant response rating, Pigweed", "setting": "[4]; [14]", "result": 10}, {"measurement": "Plant response rating, Pigweed", "setting": "[4]; [15]", "result": 20}, {"measurement": "Plant response rating, Pigweed", "setting": "[4]; [16]", "result": 25}, {"measurement": "Plant response rating, Pigweed", "setting": "[4]; [17]", "result": 45}, {"measurement": "Pigweed plant response rating", "setting": "[4]; [18]", "result": 25}, {"measurement": "Pigweed plant response rating", "setting": "[4]; [19]", "result": 40}, {"measurement": "Plant response rating, Pigweed", "setting": "[4]; [20]", "result": 45}, {"measurement": "Plant response rating (scale of 0 to 100), Pigweed", "setting": "[4]; Preemergence, 250 g ai/ha", "result": 55}, {"measurement": "Plant response rating, Blackgrass", "setting": "[5]; [14]", "result": 0}, {"measurement": "Plant response rating, Blackgrass", "setting": "[5]; [15]", "result": 0}, {"measurement": "Plant response rating, Blackgrass", "setting": "[5]; [16]", "result": 0}, {"measurement": "Plant response rating, Blackgrass", "setting": "[5]; [17]", "result": 0}, {"measurement": "Blackgrass plant response rating", "setting": "[5]; [18]", "result": 40}, {"measurement": "Blackgrass plant response rating", "setting": "[5]; [19]", "result": 45}, {"measurement": "Plant response rating, Blackgrass", "setting": "[5]; [20]", "result": 70}, {"measurement": "Plant response rating (scale of 0 to 100), Blackgrass", "setting": "[5]; Preemergence, 250 g ai/ha", "result": 75}, {"measurement": "Plant response rating, Rice", "setting": "[6]", "result": 20}, {"measurement": "Plant response rating, Barnyardgrass", "setting": "[7]", "result": 75}, {"measurement": "Plant response rating, Ragweed", "setting": "[8]; [14]", "result": 40}, {"measurement": "Plant response rating, Ragweed", "setting": "[8]; [15]", "result": 35}, {"measurement": "Plant response rating, Ragweed", "setting": "[8]; [16]", "result": 45}, {"measurement": "Plant response rating, Ragweed", "setting": "[8]; [17]", "result": 55}, {"measurement": "Ragweed plant response rating", "setting": "[8]; [19]", "result": 0}, {"measurement": "Plant response rating, Ragweed", "setting": "[8]; [20]", "result": 50}, {"measurement": "Plant response rating (scale of 0 to 100), Ragweed", "setting": "[8]; Preemergence, 250 g ai/ha", "result": 10}, {"measurement": "Plant response rating, Sedge, Umbrella", "setting": "[9]", "result": 0}, {"measurement": "Plant response rating, Velvetleaf", "setting": "[10]; [14]", "result": 30}, {"measurement": "Plant response rating, Velvetleaf", "setting": "[10]; [15]", "result": 0}, {"measurement": "Plant response rating, Velvetleaf", "setting": "[10]; [16]", "result": 0}, {"measurement": "Plant response rating, Velvetleaf", "setting": "[10]; [17]", "result": 35}, {"measurement": "Velvetleaf plant response rating", "setting": "[10]; [19]", "result": 15}, {"measurement": "Plant response rating, Velvetleaf", "setting": "[10]; [20]", "result": 20}, {"measurement": "Plant response rating (scale of 0 to 100), Velvetleaf", "setting": "[10]; Preemergence, 250 g ai/ha", "result": 40}, {"measurement": "Plant response rating, Waterhemp", "setting": "[11]; [14]", "result": 0}, {"measurement": "Plant response rating, Waterhemp", "setting": "[11]; [15]", "result": 45}, {"measurement": "Plant response rating, Waterhemp", "setting": "[11]; [16]", "result": 20}, {"measurement": "Plant response rating, Waterhemp", "setting": "[11]; [17]", "result": 20}, {"measurement": "Waterhemp plant response rating", "setting": "[11]; [19]", "result": 45}, {"measurement": "Plant response rating, Waterhemp", "setting": "[11]; [20]", "result": 65}, {"measurement": "Plant response rating (scale of 0 to 100), Waterhemp", "setting": "[11]; Preemergence, 250 g ai/ha", "result": 80}, {"measurement": "Plant response rating, Foxtail, Giant", "setting": "[12]; Postemergence, 125 g ai/ha, visual rating on 0 to 100 scale (0 no effect, 100 complete control), approx. 10 days", "result": 80}, {"measurement": "Plant response rating, Foxtail, Giant", "setting": "[12]; Postemergence, 500 g ai/ha, 0 to 100 scale (0 no effect, 100 complete control)", "result": 90}, {"measurement": "Plant response rating, Foxtail, Giant", "setting": "[12]; Preemergence, 125 g ai/ha, 0 to 100 scale where 0 is no effect and 100 is complete control", "result": 90}, {"measurement": "Foxtail, Giant plant response rating", "setting": "[12]; Preemergence, 500 g ai/ha, visual rating on 0 to 100 scale (0 no effect, 100 complete control)", "result": 90}, {"measurement": "Plant response rating, Oilseed Rape", "setting": "[13]; [14]", "result": 0}, {"measurement": "Plant response rating, Oilseed Rape", "setting": "[13]; [15]", "result": 0}, {"measurement": "Plant response rating, Oilseed Rape", "setting": "[13]; [16]", "result": 0}, {"measurement": "Plant response rating, Oilseed Rape", "setting": "[13]; [17]", "result": 0}, {"measurement": "Oilseed Rape plant response rating", "setting": "[13]; [18]", "result": 0}, {"measurement": "Oilseed Rape plant response rating", "setting": "[13]; [19]", "result": 0}, {"measurement": "Plant response rating, Oilseed Rape", "setting": "[13]; [20]", "result": 15}, {"measurement": "Plant response rating (scale of 0 to 100), Oilseed Rape", "setting": "[13]; Preemergence, 250 g ai/ha", "result": 30}]}
